From ChEMBL document CHEMBL1201861, “Genomics of Drug Sensitity in Cancer screening data, Wellcome Trust Sanger Institute” come the findings set out here.

Test in all cases: cells
The subject of one assay is D-336MG. Type of assay: functional, cell-based, Homo sapiens. The conditions noted are these: Homo sapiens, D-336MG.
Another assay deals with D-392MG. Type of assay: functional, cell-based, Homo sapiens. Conditions: Homo sapiens, D-392MG.
A further assay has as its system DMS-79. In kind it is functional, cell-based. Conditions: Homo sapiens.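 Also: growth inhibition measured with a cell viability assay.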
In a further assay the test system is EC-GI-10. In kind it is functional, cell-based, Homo sapiens. The conditions noted are these: Homo sapiens, EC-GI-10.
For a further assay, the system named is EKVX. In kind it is functional, cell-based, Homo sapiens. Conditions: Homo sapiens, EKVX.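 Also: growth inhibition of human EKVX cells, read out with a cell viability assay.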
The next assay concerns EW-1. Type of assay: functional, cell-based, Homo sapiens. The conditions noted are these: Homo sapiens, EW-1.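 Also: growth inhibition of the human EW-1 cell line, read out by a cell viability assay.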
Another assay concerns EW-24. Type of assay: functional, cell-based. Conditions: Homo sapiens.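 Also: human EW-24 cancer cell line, growth inhibition read out via a cell viability assay.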
For another assay, the system named is MSTO-211H. Type of assay: functional, cell-based, Homo sapiens. Conditions: Homo sapiens, MSTO-211H.
The next assay relates to Mo. In kind it is functional, cell-based. Conditions: Homo sapiens.
In a further assay the test system is NCI-H226. In kind it is functional, cell-based, Homo sapiens. The conditions noted are these: Homo sapiens, NCI-H226.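 Also: cell viability read-out used to gauge growth inhibition of the cells.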
Another assay deals with QIMR-WIL. In kind it is functional, cell-based. The conditions noted are these: Homo sapiens.
A further assay concerns SNB-75. In kind it is functional, cell-based, Homo sapiens. Conditions: Homo sapiens, SNB-75.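 Also: cell viability assay measuring growth inhibition of human SNB-75 cells.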
In another assay the test system is A498. In kind it is functional, cell-based, Homo sapiens. The conditions noted are these: Homo sapiens, A498.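 Also: growth inhibition of human A498 cells, read out with a cell viability assay.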
The next assay has as its system BT-474. In kind it is functional, cell-based, Homo sapiens. Conditions: Homo sapiens, BT-474.
Another assay has as its system no-10. In kind it is functional, cell-based, Homo sapiens. Conditions: Homo sapiens.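 Also: growth inhibition of no-10 cells, read out with a cell viability assay.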
A further assay has as its system TGBC24TKB. In kind it is functional, cell-based, Homo sapiens. Conditions: Homo sapiens, TGBC24TKB.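 Also: growth inhibition of human TGBC24TKB cells, read out with a cell viability assay.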

A value given as a limit tells only on which side of the number the result lay.

Description for A498: SANGER: Inhibition of human A498 cell growth in a cell viability assay.
Description for BT-474: SANGER: Inhibition of human BT-474 cell growth in a cell viability assay.
Description for D-336MG: SANGER: Inhibition of human D-336MG cell growth in a cell viability assay.
Description for DMS-79: SANGER: Inhibition of human DMS-79 cell growth in a cell viability assay.
Description for EC-GI-10: SANGER: Inhibition of human EC-GI-10 cell growth in a cell viability assay.
Description for EKVX: SANGER: Inhibition of human EKVX cell growth in a cell viability assay.
Description for EW-1: SANGER: Inhibition of human EW-1 cell growth in a cell viability assay.
Description for EW-24: SANGER: Inhibition of human EW-24 cell growth in a cell viability assay.
Description for MSTO-211H: SANGER: Inhibition of human MSTO-211H cell growth in a cell viability assay.
Description for Mo: SANGER: Inhibition of human Mo-T cell growth in a cell viability assay.
Description for NCI-H226: SANGER: Inhibition of human NCI-H226 cell growth in a cell viability assay.
Description for QIMR-WIL: SANGER: Inhibition of human QIMR-WIL cell growth in a cell viability assay.
Description for SNB-75: SANGER: Inhibition of human SNB75 cell growth in a cell viability assay.
Description for TGBC24TKB: SANGER: Inhibition of human TGBC24TKB cell growth in a cell viability assay.
Description for no-10: SANGER: Inhibition of human no-10 cell growth in a cell viability assay.

Turning to `C=C1C(=O)O[C@@H]2C3O[C@]3(C)CC/C=C(\C)CC[C@@H]12` (some centres undefined), the 50% inhibitory concentration (IC50) with D-336MG, in the assay on D-392MG, with DMS-79, in the assay with EC-GI-10, with EKVX and with EW-1 was greater than 5000 nM each time. Further, the IC50 in the assay with EW-24, in the assay on MSTO-211H, with Mo, in the assay on NCI-H226, in the assay with QIMR-WIL and with SNB-75 was greater than 5000 nM in each case. Moreover, the IC50 in the assay with A498 is greater than 5000 nM; with BT-474, greater than 5000 nM; in the assay on no-10, 1340 nM.
In the case of `CC1=C2C[C@H]3[C@@H](CC=C4C[C@@H](O)CC[C@@]43C)[C@@H]2CC[C@]12O[C@@H]1C[C@H](C)CN[C@H]1[C@H]2C` [CYCLOPAMINE], the IC50 with D-336MG, in the assay on D-392MG, in the assay with DMS-79, in the assay on EC-GI-10, in the assay with EKVX and in the assay with EW-1 was greater than 16000 nM each time. For the same compound, the IC50 with EW-24, with MSTO-211H, in the assay on Mo, in the assay with NCI-H226, in the assay with QIMR-WIL and in the assay on SNB-75 was greater than 16000 nM each time. Moreover, the figures for the IC50 in the assay on A498, with BT-474 and in the assay on no-10 were greater than 16000 nM, greater than 16000 nM and 9900 nM, respectively.
For the compound `CS(=O)(=O)CCNCc1ccc(-c2ccc3ncnc(Nc4ccc(OCc5cccc(F)c5)c(Cl)c4)c3c2)o1` [LAPATINIB], the concentration for half-maximal inhibition (IC50) in the assay with D-336MG was greater than 2000 nM; in the assay on D-392MG it was greater than 2000 nM; with DMS-79, greater than 2000 nM; in the assay with EC-GI-10, greater than 2000 nM; in the assay on EKVX, 449 nM; in the assay on EW-1, greater than 2000 nM. The 50% inhibitory concentration (IC50) in the assay on EW-24, in the assay on MSTO-211H, in the assay on Mo, in the assay on NCI-H226, with QIMR-WIL and with SNB-75 was greater than 2000 nM throughout. For the same compound, the concentration for half-maximal inhibition (IC50) in the assay on BT-474 is 213 nM; with no-10, greater than 2000 nM.
As to `CCc1nc(N)nc(N)c1-c1ccc(Cl)cc1` [PYRIMETHAMINE], the IC50 with D-336MG is greater than 20000 nM; in the assay on D-392MG it was greater than 20000 nM; with DMS-79, greater than 20000 nM; in the assay with EC-GI-10 it was greater than 20000 nM; in the assay on EKVX it was greater than 20000 nM; in the assay on EW-1, 1370 nM. The half-maximal inhibitory concentration (IC50) in the assay with EW-24 was greater than 20000 nM; in the assay on MSTO-211H, 7640 nM; in the assay with Mo it was greater than 20000 nM; in the assay with NCI-H226, greater than 20000 nM; in the assay on QIMR-WIL, 6610 nM; in the assay on SNB-75, greater than 20000 nM. Also, the IC50 in the assay with A498, in the assay with BT-474 and in the assay with no-10 was greater than 20000 nM throughout.
Regarding `O=C(/C=C/c1ccccc1)NC(NC(=S)Nc1cccc2cccnc12)C(Cl)(Cl)Cl` (centres undefined) [SALUBRINAL], the half-maximal inhibitory concentration (IC50) is 15100 nM in the assay on D-336MG; greater than 16000 nM with D-392MG; greater than 16000 nM in the assay with DMS-79; greater than 16000 nM in the assay with EC-GI-10; greater than 16000 nM in the assay with EKVX; 9710 nM in the assay with EW-1. The IC50 in the assay on EW-24, with MSTO-211H, with Mo, in the assay on NCI-H226, in the assay on QIMR-WIL and in the assay with SNB-75 was greater than 16000 nM throughout. Also, the IC50 in the assay on A498, with BT-474 and in the assay with no-10 was greater than 16000 nM each time.
`CN1CCN(CCOc2cc(OC3CCOCC3)c3c(Nc4c(Cl)ccc5c4OCO5)ncnc3c2)CC1` [SARACATINIB]: the half-inhibitory concentration (IC50) in the assay on D-336MG was 503 nM; in the assay with DMS-79 it was greater than 2000 nM; with EC-GI-10 it was greater than 2000 nM; with EKVX, greater than 2000 nM; in the assay with EW-1 it was greater than 2000 nM; with EW-24 it was 627 nM. Moreover, the half-maximal inhibitory concentration (IC50) with MSTO-211H, in the assay on Mo, with NCI-H226, in the assay with QIMR-WIL, in the assay with SNB-75 and in the assay on A498 was greater than 2000 nM each time. For the same compound, the IC50 in the assay with BT-474, with TGBC24TKB and in the assay on no-10 was greater than 2000 nM each time.
For `CO[C@H]1C[C@@H]2CC[C@@H](C)[C@@](O)(O2)C(=O)C(=O)N2CCCC[C@H]2C(=O)O[C@H]([C@H](C)C[C@@H]2CC[C@@H](O)[C@H](OC)C2)CC(=O)[C@H](C)/C=C(\C)[C@@H](O)[C@@H](OC)C(=O)[C@H](C)C[C@H](C)/C=C/C=C/C=C/1C` [SIROLIMUS], the half-inhibitory concentration (IC50) was greater than 100 nM with D-336MG; greater than 100 nM in the assay with DMS-79; greater than 100 nM in the assay with EC-GI-10; greater than 100 nM with EKVX; 2.17 nM in the assay on EW-1; greater than 100 nM with EW-24. The IC50 with MSTO-211H was greater than 100 nM; in the assay on Mo, greater than 100 nM; in the assay with NCI-H226, greater than 100 nM; in the assay with QIMR-WIL, 11.8 nM; in the assay with SNB-75 it was greater than 100 nM; in the assay on A498 it was greater than 100 nM. Moreover, the values for the IC50 with BT-474, with TGBC24TKB and in the assay on no-10 were greater than 100 nM, 5.51 nM and 7.29 nM, respectively.
In the case of `CNC(=O)c1cc(Oc2ccc(NC(=O)Nc3ccc(Cl)c(C(F)(F)F)c3)cc2)ccn1` [SORAFENIB], the 50% inhibitory concentration (IC50) with D-336MG, in the assay on D-392MG, with DMS-79, with EC-GI-10, in the assay on EKVX and in the assay with EW-1 was greater than 4000 nM in each case. Besides, the IC50 in the assay on EW-24, in the assay with MSTO-211H, with Mo, in the assay with NCI-H226, in the assay with QIMR-WIL and in the assay on SNB-75 was greater than 4000 nM each time. For the same compound, the half-maximal inhibitory concentration (IC50) in the assay with A498 is greater than 4000 nM; with BT-474, greater than 4000 nM; in the assay on no-10, 1620 nM.
For `CCC(=O)N1CCN(c2ccc(-n3c(=O)ccc4cnc5ccc(-c6cnc7ccccc7c6)cc5c43)cc2C(F)(F)F)CC1` [TORIN1], the concentration for half-maximal inhibition (IC50) in the assay with D-336MG is 266 nM; with DMS-79, greater than 1200 nM; with EC-GI-10 it was greater than 1200 nM; in the assay on EKVX, 445 nM; with EW-1 it was 7.49 nM; in the assay with EW-24 it was greater than 1200 nM. Besides, the half-inhibitory concentration (IC50) with MSTO-211H was greater than 1200 nM; with Mo it was greater than 1200 nM; in the assay on NCI-H226, greater than 1200 nM; in the assay on QIMR-WIL, 80.6 nM; with SNB-75, 63.4 nM; in the assay on A498, greater than 1200 nM. Further, the half-inhibitory concentration (IC50) in the assay with BT-474 was 293 nM; in the assay on TGBC24TKB, 58 nM; in the assay on no-10, 15.8 nM.
Consider `Cc1cc(Nc2cc(N3CCN(C)CC3)nc(Sc3ccc(NC(=O)C4CC4)cc3)n2)n[nH]1` [TOZASERTIB], for which the 50% inhibitory concentration (IC50) in the assay on D-336MG is greater than 2000 nM; in the assay with DMS-79, greater than 2000 nM; in the assay with EC-GI-10 it was greater than 2000 nM; with EKVX it was greater than 2000 nM; in the assay on EW-1, 1190 nM; in the assay on EW-24, greater than 2000 nM. For the same compound, the IC50 in the assay on MSTO-211H was greater than 2000 nM; with Mo, greater than 2000 nM; in the assay on NCI-H226, greater than 2000 nM; in the assay with QIMR-WIL, 427 nM; in the assay with SNB-75, greater than 2000 nM; with A498, greater than 2000 nM. The IC50 was greater than 2000 nM in the assay with BT-474, 864 nM in the assay with TGBC24TKB and greater than 2000 nM in the assay with no-10.

Usually IC50 stands for the concentration at which inhibition is half-maximal.
